Results on 1 compound are retold here after article PMC12051620, “Molecular basis underlying the specificity of an antagonist AA92593 for mammalian melanopsins” (The Journal of Biological Chemistry, 2025).

Experiment [1] has as its target T1, human melanopsin F94^2.61C/S188^ECL2T/W189^ECL2F/S269^6.52A mutant (Homo sapiens, UniProt Q9UHM6, F127C/S222T/S313A/W223F).
T1 construct: expressed in transfected cells; host or cells: COS-1
Nature of the experiment: GsX GloSensor assay with Gsα/q11. The format is cell-based. The conditions noted are these: up to 16.7 μM AA92593, COS-1 cells. The source says:
(§1) Next, we attempted to render human melanopsin more ineffective to AA92593 by combining W189^ECL2F with F94^2.61C/S188^ECL2T/S269^6.52A. […] We note that the loss of sensitivity for AA92593 by the quadruple substitutions was not due to the substitutions-induced changes in absorption spectrum or localization in COS-1 cells. […] In the GloSensor assay, a small difference in G protein activation between the triple and quadruple mutants in the presence of AA92593 would be amplified through the second messenger signaling cascade.
(§2) For GloSensor assay, opsins, GloSensor assay sensor (coded by pGlo-22F), and NanoBiT-tagged G proteins were transiently expressed in COS-1 cells (kindly provided from Dr David Farrens, Oregon Health and Science University) using PEI as described previously ([24], [52]). For the GsX GloSensor assay ([12], [13]), each well of a 96-well assay plate (Corning) was transfected with 50 ng opsin plasmid, 16.7 ng G protein plasmid, 50 ng pGlo-22F plasmid (Promega), and 500 ng PEI in 25 μl Opti-mem and 75 μl Dulbecco's modified Eagle's medium (D-MEM). […] For GFP-fluorescence microscopy, a 35-mm cell culture dish (IWAKI) was transfected with 2 μg melanopsin-GFP plasmid and 8 μg PEI in 400 μl Opti-mem and 1.2 ml D-MEM. […]

Experiment [2] deals with mouse melanopsin L207^5.42F mutant. Nature of the experiment: GsX GloSensor assay with Gsα/q11. The format is cell-based. The note with it: 16.7 μM AA92593, COS-1 cells.
Text: as §1, §2

Experiment [3] concerns the target T2, human melanopsin (Homo sapiens, UniProt Q9UHM6).
T2 sequence (Q9UHM6 1-384 limits assumed): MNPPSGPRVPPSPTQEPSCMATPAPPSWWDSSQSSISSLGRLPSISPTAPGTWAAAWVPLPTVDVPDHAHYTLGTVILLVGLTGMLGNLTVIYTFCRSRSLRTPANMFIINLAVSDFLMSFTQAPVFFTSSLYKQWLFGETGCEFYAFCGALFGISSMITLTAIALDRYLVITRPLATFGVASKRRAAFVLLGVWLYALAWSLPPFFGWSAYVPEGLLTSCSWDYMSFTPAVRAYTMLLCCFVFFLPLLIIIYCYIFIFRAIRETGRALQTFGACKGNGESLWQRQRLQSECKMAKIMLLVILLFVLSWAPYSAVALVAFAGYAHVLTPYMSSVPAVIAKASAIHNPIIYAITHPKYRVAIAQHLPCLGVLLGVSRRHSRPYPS
Further details: the C-terminal amino acid residues (94, 140, 200, 214, 296, and 308 residues); expressed in transfected cells; method as in PMID 23974117. The conditions noted are these: CHO cells; calcium imaging; 9-cis-retinal incubation several minutes; read-out: IC50 reported in the previous study; cited from earlier work.

The target in experiment [4] is T2, human melanopsin. Briefly: GsX GloSensor assay with Gsα/i11. The format is cell-based. Also on record: the C-terminal amino acid residues (94, 140, 200, 214, 296, and 308 residues); expressed in transfected cells; host or cells: COS-1. The note with it: 16.7 μM AA92593; COS-1 cells. The source says:
Previous studies of human and mouse melanopsins reported that these melanopsins can activate not only Gq but Gs and Gi ([20], [21], [22]). Thus, we assessed the effect of AA92593 on Gsα WT or Gsα/i11 (with 11 C-terminal sequence of Giα) using the GsX GloSensor assay. In agreement with the promiscuous G protein-coupling of melanopsins, we observed light-dependent increase of GloSensor luminescence in COS-1 cells expressing Gsα or Gsα/i11 with human/mouse melanopsins (Fig. 1, G–J).
For GloSensor assay, opsins, GloSensor assay sensor (coded by pGlo-22F), and NanoBiT-tagged G proteins were transiently expressed in COS-1 cells (kindly provided from Dr David Farrens, Oregon Health and Science University) using PEI as described previously ([24], [52]). […] For GFP-fluorescence microscopy, a 35-mm cell culture dish (IWAKI) was transfected with 2 μg melanopsin-GFP plasmid and 8 μg PEI in 400 μl Opti-mem and 1.2 ml D-MEM. […]
The transfected COS-1 cells were incubated at 37 °C, 5% CO2 for 2 days, and the medium was aspirated and exchanged with 50 μl of HBSS (145 mM NaCl, 10 mM D-glucose, 5 mM KCl, 1 mM MgCl2, 1.7 mM CaCl2, 1.5 mM NaHCO3, 10 mM Hepes, pH 7.4), containing 33.3, 20, 10, 2, 0.2, 0.02, 0.002, or 0 μM AA92593, 0.5% dimetyl sulfoxide (DMSO), and 4% (vol/vol) GloSensor cAMP reagent stock solution. […] Luminescence was measured using GM-2000 or GM-3510 microplate reader (Promega). […]

T1 sequence (Q9UHM6 1-384 F127C/S222T/W223F/S313A): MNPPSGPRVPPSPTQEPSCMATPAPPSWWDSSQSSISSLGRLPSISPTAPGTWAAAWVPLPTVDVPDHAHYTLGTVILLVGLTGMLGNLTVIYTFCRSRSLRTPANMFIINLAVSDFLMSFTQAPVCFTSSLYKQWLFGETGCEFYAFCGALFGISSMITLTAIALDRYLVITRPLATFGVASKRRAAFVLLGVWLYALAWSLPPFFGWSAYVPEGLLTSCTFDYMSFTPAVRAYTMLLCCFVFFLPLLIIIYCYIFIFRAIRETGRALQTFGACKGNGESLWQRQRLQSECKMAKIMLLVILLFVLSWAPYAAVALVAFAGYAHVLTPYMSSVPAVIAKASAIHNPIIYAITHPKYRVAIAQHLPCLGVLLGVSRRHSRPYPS

On to `COc1ccc(S(=O)(=O)N2CCCCC2)cc1C` [AA92593], for which the “sensitivity to AA92593” value in experiment [1] is “almost completely lost sensitivity”. Also, the “increased susceptibility to the antagonist vs WT” value in experiment [2] is listed as ~26%. Further, the half-inhibitory concentration (IC50) on human melanopsin [3] is 665 nM. In addition, the “effect on melanopsin-induced cAMP responses via Gsα/i11” value at human melanopsin [4] was “can suppress”.
